# In US20040006236A1, “Diaminopropionic acid derivatives” (priority 1999, published 2004):
# Read-outs that look alike come from different tables or passages of the source.
# Legend:
# [1] = biological target: T1, ICAM-1 binding to immobilized Mac-1 (Homo sapiens, UniProt P05107+P11215); assay: Mac-1/ICAM-1 screening assay (solid-phase ELISA); conditions: read-out: Mac-1/ICAM-1 Protein-Protein Assay IC50
# T1 construct: made in house; host or cells: transfected 293 cells (Mac-1)
# Method in brief: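 Competitive solid-phase ELISA: membrane Mac-1 from transfected 293 cells coated at 3 μg/mL in 20 mM Hepes pH 7.2/0.14 M NaCl/1 mM MnCl2; compounds (0.12 nM-20 μM, 1:4 series) plus 5dICAM-Ig (40 μg/mL, added) 2 h at 37° C. Bound ICAM-Ig detected with HRP anti-human IgG Fc, TMB, A450; IC50 reported.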
# [2] = test system: T lymphocyte proliferation (C57BI/6 spleen cells with irradiated BALB/c spleen cells); assay: Mixed lymphocyte reaction (MLR), one-way; type: cell-based, mice; conditions: read-out: MLR IC50
# Method in brief: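 Irradiated BALB/c spleen cells mixed with C57BI/6 spleen cells in RPMI1640/10% heat-inactivated FBS/2-mercaptoethanol, with serial antagonist dilutions; 3 days at 5% CO2. Tritiated thymidine (0.5 μCi/well) added on day 3; incorporation counted by liquid scintillation after a further 6 h.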
# [3] = test system: cell-surface Mac-1 adhesion to immobilized fibrinogen (HL-60 cells); assay: Mac-1/Fibrinogen cell-based screening assay; parameters: species or system human; conditions: Homo sapiens, HL-60, HL-60 cells; read-out: Mac-1/Fgn Cell based Assay IC50
# Method in brief: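 Wells coated with fibrinogen and blocked with PVP. Labeled HL-60 cells (2×10^6 cells/mL in RPMI/0.05% BSA/0.2 mM MnCl2) preincubated with DMSO-diluted compounds for 10 min at 37° C, then left to adhere 30 min at 37° C/5% CO2. Unbound cells washed off with TBS.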
# T1 sequence (P05107 23-769, other chains not shown): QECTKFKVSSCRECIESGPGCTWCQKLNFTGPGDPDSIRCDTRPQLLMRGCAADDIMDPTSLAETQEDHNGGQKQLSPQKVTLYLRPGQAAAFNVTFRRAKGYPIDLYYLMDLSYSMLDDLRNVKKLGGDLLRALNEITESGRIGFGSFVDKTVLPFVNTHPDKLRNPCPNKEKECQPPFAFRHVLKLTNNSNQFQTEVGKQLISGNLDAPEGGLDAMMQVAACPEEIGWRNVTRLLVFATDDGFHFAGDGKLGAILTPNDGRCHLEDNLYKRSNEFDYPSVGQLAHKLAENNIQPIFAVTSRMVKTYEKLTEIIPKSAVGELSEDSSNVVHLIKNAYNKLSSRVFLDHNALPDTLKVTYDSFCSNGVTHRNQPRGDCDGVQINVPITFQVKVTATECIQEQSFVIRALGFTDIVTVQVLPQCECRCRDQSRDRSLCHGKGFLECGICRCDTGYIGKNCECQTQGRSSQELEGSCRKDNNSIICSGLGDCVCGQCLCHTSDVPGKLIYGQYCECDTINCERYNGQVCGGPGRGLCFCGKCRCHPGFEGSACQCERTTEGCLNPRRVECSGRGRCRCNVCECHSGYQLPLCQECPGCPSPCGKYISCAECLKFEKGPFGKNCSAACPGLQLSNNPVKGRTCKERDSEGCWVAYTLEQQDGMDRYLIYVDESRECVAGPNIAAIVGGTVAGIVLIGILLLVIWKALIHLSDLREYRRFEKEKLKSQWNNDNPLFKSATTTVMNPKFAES
SMILES,IC50 [1] [nM],"IC50 ([2]; Mus musculus, T-lymphocyte) [nM]",IC50 [3] [nM],IC50 [2] [nM]
O=C(NCc1cccc(O)c1)c1ccc(C(=O)N[C@@H](CNC(=O)C2CCCCC2)C(=O)O)c(Cl)c1 [Example 104],25,775,82,
CC1(C(=O)NC[C@H](NC(=O)c2ccc(C(=O)NCc3cccc(O)c3)cc2Cl)C(=O)O)CCCCC1 [Example 105],22,280,151,
O=C(CCN1CCCCC1)NC[C@H](NC(=O)c1ccc(C(=O)NCc2cccc(O)c2)cc1Cl)C(=O)O [Example 112],18,375,161,
O=C(/C=C/c1cccs1)NC[C@H](NC(=O)c1ccc(C(=O)NCc2cccc(O)c2)cc1Cl)C(=O)O [Example 116],18,1300,86,
CC(=O)Oc1ccccc1C(=O)NC[C@H](NC(=O)c1ccc(C(=O)NCc2cccc(O)c2)cc1Cl)C(=O)O [Example 117],33,290,131,
Nc1cccc(C(=O)NC[C@H](NC(=O)c2ccc(C(=O)NCc3cccc(O)c3)cc2Cl)C(=O)O)c1 [Example 118],23,,16,145
NS(=O)(=O)c1ccc(C(=O)NC[C@H](NC(=O)c2ccc(C(=O)NCc3cccc(O)c3)cc2Cl)C(=O)O)cc1 [Example 119],26,420,468,
O=C(NCc1cccc(O)c1)c1ccc(C(=O)N[C@@H](CNC(=O)c2cccc(Br)c2)C(=O)O)c(Cl)c1 [Example 121],9,530,80,
O=C(NCc1cccc(O)c1)c1ccc(C(=O)N[C@@H](CNC(=O)c2cccc(Cl)c2)C(=O)O)c(Cl)c1 [Example 123],6.9,300,20,
N#Cc1cccc(C(=O)NC[C@H](NC(=O)c2ccc(C(=O)NCc3cccc(O)c3)cc2Cl)C(=O)O)c1 [Example 126],11,400,27,
CN(C)c1cccc(C(=O)NC[C@H](NC(=O)c2ccc(C(=O)NCc3cccc(O)c3)cc2Cl)C(=O)O)c1 [Example 127],23,455,71,
O=C(NCc1cccc(O)c1)c1ccc(C(=O)N[C@@H](CNC(=O)c2cccc(F)c2)C(=O)O)c(Cl)c1 [Example 131],9.7,215,12,
O=C(NCc1cccc(O)c1)c1ccc(C(=O)N[C@@H](CNC(=O)c2cccc(O)c2)C(=O)O)c(Cl)c1 [Example 132],7,82,3.3,
O=C(NCc1cccc(O)c1)c1ccc(C(=O)N[C@@H](CNC(=O)c2cccc(I)c2)C(=O)O)c(Cl)c1 [Example 133],10,625,32,
COc1ccccc1C(=O)NC[C@H](NC(=O)c1ccc(C(=O)NCc2cccc(O)c2)cc1Cl)C(=O)O [Example 134],26,1550,218,
COC(=O)c1cccc(C(=O)NC[C@H](NC(=O)c2ccc(C(=O)NCc3cccc(O)c3)cc2Cl)C(=O)O)c1 [Example 136],16,490,121,
Cc1ccccc1C(=O)NC[C@H](NC(=O)c1ccc(C(=O)NCc2cccc(O)c2)cc1Cl)C(=O)O [Example 137],22,325,84,

SMILES,IC50 [1] [nM],"IC50 ([2]; Mus musculus, T-lymphocyte) [nM]",IC50 [3] [nM],IC50 [2] [nM]
Cc1cccc(C(=O)NC[C@H](NC(=O)c2ccc(C(=O)NCc3cccc(O)c3)cc2Cl)C(=O)O)c1 [Example 138],10,205,17,
O=C(NCc1cccc(O)c1)c1ccc(C(=O)N[C@@H](CNC(=O)c2ccccc2[N+](=O)[O-])C(=O)O)c(Cl)c1 [Example 140],47,350,98,
O=C(NCc1cccc(O)c1)c1ccc(C(=O)N[C@@H](CNC(=O)c2cccc([N+](=O)[O-])c2)C(=O)O)c(Cl)c1 [Example 141],9.6,450,47,
O=C(NCc1cccc(O)c1)c1ccc(C(=O)N[C@@H](CNC(=O)c2ccc([N+](=O)[O-])cc2)C(=O)O)c(Cl)c1 [Example 142],13,500,275,
O=C(NCc1cccc(O)c1)c1ccc(C(=O)N[C@@H](CNC(=O)c2cc(F)c(F)cc2F)C(=O)O)c(Cl)c1 [Example 145],24,1450,131,
O=C(NCc1cccc(O)c1)c1ccc(C(=O)N[C@@H](CNC(=O)c2cccc(C(F)(F)F)c2)C(=O)O)c(Cl)c1 [Example 146],27,490,153,
O=C(NCc1cccc(O)c1)c1ccc(C(=O)N[C@@H](CNC(=O)c2ccco2)C(=O)O)c(Cl)c1 [Example 148],18,335,76,
O=C(NCc1cccc(O)c1)c1ccc(C(=O)N[C@@H](CNC(=O)c2ccc(Br)o2)C(=O)O)c(Cl)c1 [Example 150],21,800,65,
O=C(NCc1cccc(O)c1)c1ccc(C(=O)N[C@@H](CNC(=O)c2ccc[nH]2)C(=O)O)c(Cl)c1 [Example 151],33,265,46,
O=C(NCc1cccc(O)c1)c1ccc(C(=O)N[C@@H](CNC(=O)c2sccc2Br)C(=O)O)c(Cl)c1 [Example 154],11,365,58,
O=C(NCc1cccc(O)c1)c1ccc(C(=O)N[C@@H](CNC(=O)c2ccc(Br)s2)C(=O)O)c(Cl)c1 [Example 155],13,750,51,
O=C(NCc1cccc(O)c1)c1ccc(C(=O)N[C@@H](CNC(=O)c2sccc2Cl)C(=O)O)c(Cl)c1 [Example 156],12,465,64,
O=C(NCc1cccc(O)c1)c1ccc(C(=O)N[C@@H](CNC(=O)c2ccc(Cl)s2)C(=O)O)c(Cl)c1 [Example 157],7.7,700,34,
O=C(NCc1cccc(O)c1)c1ccc(C(=O)N[C@@H](CNC(=O)c2cc(Br)c(Br)s2)C(=O)O)c(Cl)c1 [Example 158],20,7600,70,
Cc1ccsc1C(=O)NC[C@H](NC(=O)c1ccc(C(=O)NCc2cccc(O)c2)cc1Cl)C(=O)O [Example 159],13,165,36,
Cc1ccc(C(=O)NC[C@H](NC(=O)c2ccc(C(=O)NCc3cccc(O)c3)cc2Cl)C(=O)O)s1 [Example 160],6.6,220,11,
O=C(NCc1cccc(O)c1)c1ccc(C(=O)N[C@@H](CNC(=O)c2ccsc2)C(=O)O)c(Cl)c1 [Example 161],12,94,17,
